Data from US8324404B2, “3-thia-10-aza-phenanthrene derivatives” (Nycomed GmbH, priority 2004, dated 2012).

These molecules were tested against T1, PDE4B2 (Homo sapiens, UniProt Q07343) (assay: Inhibition of PDE4B2 activity, modified [3H]cAMP SPA (scintillation proximity assay) test). Details: recombinant PDE4B2 (GB no. M97515) expressed in SF21 insect cells; 0.5 μM cAMP; 15 min at 37° C.; read-out: PDE4 Inhibition [measured as −logIC50 (mol/l)] (converted).
T1 construct: made in house; host or cells: SF21 insect cells (baculovirus, pCR-Bac vector; virus made in SF9 cells)
T1 sequence (Q07343 1-564 isoform Q07343-2): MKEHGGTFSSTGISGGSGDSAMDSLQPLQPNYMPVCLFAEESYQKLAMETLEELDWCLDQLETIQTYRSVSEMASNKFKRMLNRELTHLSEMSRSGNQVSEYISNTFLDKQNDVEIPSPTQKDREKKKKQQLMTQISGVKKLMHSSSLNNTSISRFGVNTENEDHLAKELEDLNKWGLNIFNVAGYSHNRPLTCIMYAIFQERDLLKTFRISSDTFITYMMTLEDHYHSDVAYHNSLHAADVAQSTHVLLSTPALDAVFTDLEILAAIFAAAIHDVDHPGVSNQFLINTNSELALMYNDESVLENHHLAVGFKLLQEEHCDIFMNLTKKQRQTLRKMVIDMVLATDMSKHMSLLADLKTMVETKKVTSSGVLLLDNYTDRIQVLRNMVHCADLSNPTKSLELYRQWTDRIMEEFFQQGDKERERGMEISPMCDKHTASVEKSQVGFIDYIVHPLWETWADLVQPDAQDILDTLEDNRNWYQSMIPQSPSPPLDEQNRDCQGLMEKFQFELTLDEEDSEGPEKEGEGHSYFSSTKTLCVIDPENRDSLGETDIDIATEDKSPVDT
Format: biochemical
Method: The PDE4B2 (GB no. M97515) was a gift of Prof. M. Conti (Stanford University, USA). It was amplified from the original plasmid (pCMV5) via PCR with primers Rb9 (5′-[…]-3′) and Rb10 (5′-[…]-3′) and cloned into the pCR-Bac vector (Invitrogen, Groningen, NL).
The recombinant baculovirus was prepared by means of homologous recombination in SF9 insect cells. The expression plasmids were cotransfected with Bac-N-Blue (Invitrogen, Groningen, NL) or Baculo-Gold DNA (Pharmingen, Hamburg) using a standard protocol (Pharmingen, Hamburg). Wt virus-free recombinant virus supernatants were selected using plaque assay methods. After that, high-titre virus supernatants were prepared by amplifying 3 times. PDE4B2 was expressed in SF21 cells by infecting 2×10^6 cells/ml with an MOI (multiplicity of infection) between 1 and 10 in serum-free SF900 medium (Life Technologies, Paisley, UK). The cells were cultured at 28° C. for 48-72 hours, after which they were pelleted for 5-10 min at 1000 g and 4° C.
The SF21 insect cells were resuspended, at a concentration of approx. 10^7 cells/ml, in ice-cold ([…]) homogenization buffer (20 mM Tris, pH 8.2, containing the following additions: 140 mM NaCl, 3.8 mM KCl, 1 mM EGTA, 1 mM MgCl2, 10 mM-mercaptoethanol, 2 mM benzamidine, 0.4 mM Pefablock, 10 μM leupeptin, 10 μM pepstatin A, 5 μM trypsin inhibitor) and disrupted by ultrasonication. The homogenate was then centrifuged for 10 min at 1000×g and the supernatant was stored at −80° C. until sub-sequent use (see below). The protein content was determined by the Bradford method (BioRad, Munich) using BSA as the standard.
PDE4B2 activity was inhibited by the said compounds in a modified SPA (scintillation proximity assay) test, supplied by Amersham Biosciences (see procedural instructions “phosphodiesterase [3H]cAMP SPA enzyme assay, code TRKO 7090”), carried out in 96-well microtitre plates (MTP's). The test volume is 100 μl and contains 20 mM Tris buffer (pH 7.4), 0.1 mg of BSA (bovine serum albumin)/ml, 5 mM Mg^2+, 0.5 μM cAMP (including about 50,000 cpm of [3H]cAMP), 1 μl of the respective substance dilution in DMSO and sufficient recombinant PDE (1000×g supernatant, see above) to ensure that 10-20% of the cAMP is converted under the said experimental conditions. […] After a preincubation of 5 min at 37° C., the reaction is started by adding the substrate (cAMP) and the assays are incubated for a further 15 min; after that, they are stopped by adding SPA beads (50 μl). […] After the beads have been sedimented (>30 min), the MTP's are analyzed in commercially available luminescence detection devices. The corresponding IC50 values of the compounds for the inhibition of PDE activities are determined from the concentration-effect curves by means of non-linear regression.

| IC50 | SMILES |
| --- | --- |
| 145 nM | CCOc1cc2c(cc1OC)C(c1ccc(C(=O)N(C(C)C)C(C)C)cc1)=N[C@@H]1CC[S+]([O-])C[C@H]21 (single isomer, unassigned) [Compound 2] |
| 3.31 nM | CCOc1cc2c(cc1OC)C(c1ccc(C(=O)N(C(C)C)C(C)C)cc1)=N[C@@H]1CC[S+]([O-])C[C@H]21 (single isomer, unassigned) [Compound 3] |
| 0.724 nM | CCOc1cc2c(cc1OC)C(c1ccc(C(=O)N(C(C)C)C(C)C)cc1)=N[C@@H]1CCSC[C@H]21 [Compound 1, 4-((4aR,10aR)-6-Ethoxy-7-methoxy-1,4,4a,10a-tetrahydro-2H-3-thia-10-aza-phenanthren-9-yl)-N,N-diisopropyl-benzamide] |
| 20 nM | CCOc1cc2c(cc1OC)C(c1ccc(C(=O)N(C(C)C)C(C)C)cc1)=[N+]([O-])[C@@H]1CCS(=O)(=O)C[C@H]21 [Compound 5, 4-((4aR,10aR)-6-Ethoxy-7-methoxy-3,3-dioxo-10-oxy-1,2,3,4,4a,10a-hexahydro-3l^6-thia-10-aza-phenanthren-9-yl)-N,N-diisopropyl-benzamide] |
